Measurements from patent US20020110602A1, “Method and apparatus for washing produce” (priority 2000, published 2002).
Several values for one entry are separate records, joined by “and”; a condition that tells them apart may be missing. Equal entries are not always repeated. Where two headings read alike, the source gives them in different places.

How the values were obtained:
P. digitatum [1] = settings: fresh oranges and lemons; pressure washing; FIG. 6
P. digitatum [2] = experiment: Immersion washing of oranges with various solutions, decay; assay type: in vivo, Penicillium digitatum
[3] = test system: sour rot (Geotrichum Candidum); experiment: Effect of treatments on sour rot decay of lemons; assay type: in vivo
Green Mold [4] = settings: 35 seconds, 2 weeks at 50° F.
Green Mold [5] = experiment: Washing of oranges inoculated with Green Mold, decay; assay type: in vivo, Penicillium digitatum; settings: oranges infected by green mold; four groups of 25; pressure washer, or soak tank for soda ash, sodium bicarbonate
Green Mold [6] = settings: 35 seconds, 2 weeks at 50° F.; remark: listed apart in the source
P. digitatum [7] = experiment: Effect of pH and bicarbonate concentration on decay of oranges; assay type: in vivo, Penicillium digitatum
[8] = test system: P. digitatum (M6R strain); experiment: High pressure washing of inoculated navel oranges with sodium hypochlorite solution, no bicarbonate; assay type: in vivo, Penicillium digitatum; settings: 2 weeks at 55° F.; for % Fruit Decay (Average): navel oranges; for Total Decay: number of decayed navel oranges; for No decay: number of navel oranges without decay
P. digitatum [9] = settings: lemons inoculated 48 hours before treatment; immersion; cited from earlier work
[10] = test system: P. digitatum (M6R strain); experiment: SOPP, sodium bicarbonate & chlorine treatment, navel orange decay control; assay type: in vivo, Penicillium digitatum
P. digitatum isolate M6R [11] = settings: oranges, 1 or 3% wt/vol, 200 micrograms/ml free NaOCl, pH 8.3, controls 97%
P. digitatum isolate M6R [12] = settings: lemons, 1 or 3% wt/vol, 200 micrograms/ml free NaOCl, pH 8.3, controls 97%
[13] = first set of data, four groups of 25
[14] = second set of data, four groups of 25
[15] = second set of data, dipping, pH 7.5, alone
[16] = high pressure (about 300 psi) wash
[17] = low pressure (about 95 psi) wash
[18] = pressure washer (100 psi), navel oranges, replicates R1-R4, 2 weeks at 55° F., listed as Chlorine @ 200 ppm
[19] = second set of data, dipping, pH 11.4, alone

In the case of `O=C([O-])O.[Na+]` [BCB 3% alone, sodium bicarbonate], the decay control (P. digitatum [1]) is reported as ~100% and the “Mean Decay (%)” value (P. digitatum [2]; in vivo) is reported as 7.000%.
In the case of `O=C([O-])[O-].[Na+].[Na+]` [Soda ash 3% w/v at 80° F., sodium carbonate], the “Mean Decay (%)” value [3, 13] is reported as 10.638%, the “Mean Decay (%)” value [3, 14] is reported as 10.856% and the “Decay (%) Oranges” value (Green Mold [4]; no pressure washing, dip) is reported as 13.0%. For the same compound, the “Mean Decay (%)” value (Green Mold [5]) was 11.000% and the “Decay (%) Lemons” value (Green Mold [6]; no pressure washing, dip) was 6.8%.
In the case of `O=C([O-])O.[Na+]` [0.3 M sodium bicarbonate, pH 7.5, sodium bicarbonate], the “Mean Decay (%)” value (P. digitatum [7]; [13]) is reported as 41.000% and the “Mean Decay (%)” value (P. digitatum [7]; [15]) is reported as 41.000%.
For `[O][Cl+][O-]` [Oxine 3-6 ppm alone at 80° F., chlorine dioxide], the “Mean Decay (%)” value ([3]; first set of data, four groups of 25, listed as Oxine 3-8 ppm, 80° F.) was 21.710%, the “Mean Decay (%)” value ([3]; second set of data, four groups of 25, listed as Oxine 5-8 ppm 80° F.) was 21.710% and the “Mean Decay (%)” value (Green Mold [5]) was 14.000%.
With `[Na+].[O-]Cl` [High Cl, sodium hypochlorite] the “% Fruit Decay (Average)” value [8, 16] was 97.5%, the “% Fruit Decay (Average)” value [8, 17] was 98% and the “Total Decay” value [8, 16] was 197. For the same compound, the “Total Decay” value [8, 17] was 196, the No decay [8, 16] was 5 and the No decay [8, 17] was 4.
In the case of `O=C([O-])[O-].[Na+].[Na+]` [sodium carbonate], the “reduction of incidence of infections from wounds” value (P. digitatum [9]) is given as “more than 90%”.
For `[Na+].[O-]Cl` [HOCl 200 ppm alone, sodium hypochlorite], the “Mean Decay (%)” value ([10]; 100 psi wash, navel oranges (Table 10)) was 99.3% (a), the “Decay Control (%)” value ([10]; 100 psi wash, navel oranges, relative to inoculated control) was 0.0% and the “% Decay, Mean %” value ([10]; pressure washer (100 psi), navel oranges, mean of four replicates) was 99.3%. The “# Decay” value [10, 18] was 105 and 104 and 95 and 98, the “# Healthy” value [10, 18] was 0 and 1 (3×) and the “% Decay” value [10, 18] was 100.0% and 99.0% (3×). The “Mean Decay (%)” value (P. digitatum [2]; immersion, oranges, mean of four samples of 25) was 88.000%.
With `O=C([O-])O.[Na+]` [BCB 0.5% alone, sodium bicarbonate] the “Decay (%) Oranges” value (Green Mold [4]; high pressure washing) was 76.3%, the “Decay (%) Oranges” value (Green Mold [4]; low pressure washing) was 82.7% and the “Decay (%) Oranges” value (Green Mold [4]; no pressure washing, dip) was 56.9%. The “Decay (%) Lemons” value (Green Mold [6]; high pressure washing) was 55.3%, the “Decay (%) Lemons” value (Green Mold [6]; low pressure washing) was 66.2% and the “Decay (%) Lemons” value (Green Mold [6]; no pressure washing, dip) was 45.1%. The “Mean Decay (%)” value (P. digitatum [2]; in vivo) was 27.000%.
For `O=C([O-])O.[Na+]` [0.3 M sodium bicarbonate, pH 8.4, sodium bicarbonate], the “Mean Decay (%)” value (P. digitatum [7]; [13]) was 43.000% and the “Mean Decay (%)” value (P. digitatum [7]; second set of data, dipping, pH 8.4, alone) was 43.000%.
For `[O][Cl+][O-]` [Oxine 75 ppm alone at 80° F., chlorine dioxide], the “Mean Decay (%)” value ([3]; first set of data, four groups of 25, 80° F.) was 22.338%, the “Mean Decay (%)” value ([3]; second set of data, four groups of 25, listed as Oxine 75 ppm 80° F.) was 22.358% and the “Mean Decay (%)” value (Green Mold [5]) was 14.000%.
For `O=C([O-])[O-].[Na+].[Na+]` [0.15 M soda ash, pH 11.4, sodium carbonate], the “Mean Decay (%)” value (P. digitatum [7]; [13]) was 31.000% and the “Mean Decay (%)” value (P. digitatum [7]; [19]) was 31.000%.
In the case of `CC/C=C\CC1C(=O)CCC1CC(=O)OC` (stereo not shown) [Methyl jasmenate, high rate, Methyl jasmenate], the “Mean Decay (%)” value (P. digitatum [7]; [13]) is reported as 100.000% and the “Mean Decay (%)” value (P. digitatum [7]; second set of data, dipping) is reported as 100.000%.
For `O=C([O-])O.[Na+]` [0.15 M sodium bicarbonate, pH 7.5, sodium bicarbonate], the “Mean Decay (%)” value (P. digitatum [7]; [13]) was 65.000% and the “Mean Decay (%)” value (P. digitatum [7]; [15]) was 65.000%.
With `O=C([O-])[O-].[Na+].[Na+]` [0.3 M soda ash, pH 11.4, sodium carbonate] the “Mean Decay (%)” value (P. digitatum [7]; [13]) was 10.000% and the “Mean Decay (%)” value (P. digitatum [7]; [19]) was 10.000%.
For `[Na+].[O-]Cl` [Low Cl, sodium hypochlorite], the “% Fruit Decay (Average)” value [8, 16] was 98.5%, the “% Fruit Decay (Average)” value [8, 17] was 99.5% and the “Total Decay” value [8, 16] was 201. The “Total Decay” value [8, 17] was 199, the No decay [8, 16] was 3 and the No decay [8, 17] was 1.
For `[O][Cl+][O-]` [Oxine 200 ppm alone at 80° F., chlorine dioxide], the “Mean Decay (%)” value ([3]; first set of data, four groups of 25, listed as Ozine 200 ppm, alone 80° F.) was 10.818%, the “Mean Decay (%)” value ([3]; second set of data, four groups of 25, listed as Oxine 200 ppm 80° F.) was 10.878% and the “Mean Decay (%)” value (Green Mold [5]) was 18.000%.
In the case of `OCl` [HOCl pH 8.4, HOCl], the “Mean Decay (%)” value (P. digitatum [7]; [13]) is reported as 99.000% and the “Mean Decay (%)” value (P. digitatum [7]; second set of data, dipping, listed as HOCl pH 8.4 alone) is reported as 99.000%.
In the case of `O=C([O-])O.[Na+]` [BCB 1% alone, sodium bicarbonate], the “Mean Decay (%)” value (P. digitatum [2]; in vivo) is reported as 13.000%.
With `OCl` [HOCl pH 11.4, HOCl] the “Mean Decay (%)” value (P. digitatum [7]; [13]) was 95.000% and the “Mean Decay (%)” value (P. digitatum [7]; [19]) was 95.000%.
In the case of `[Na+].[O-]Cl` [NaOCl 200 ppm pH 7.5 alone at 80° F., sodium hypochlorite], the “Mean Decay (%)” value [3, 13] is reported as 18.112%, the “Mean Decay (%)” value [3, 14] is reported as 18.112% and the “Mean Decay (%)” value (Green Mold [5]) is reported as 17.000%.
In the case of `O=C([O-])O.[Na+]` [BCB 0.25% alone, sodium bicarbonate], the “Mean Decay (%)” value (P. digitatum [2]; in vivo) is reported as 46.000%.
In the case of `OCl` [HOCl pH 7.5, HOCl], the “Mean Decay (%)” value (P. digitatum [7]; [13]) is reported as 99.000% and the “Mean Decay (%)” value (P. digitatum [7]; second set of data, dipping, listed as HOCl pH 7.5 alone) is reported as 99.000%.
With `O=C([O-])O.[Na+]` [sodium bicarbonate] the mean decay (P. digitatum isolate M6R [11]; HPSW at 2150 kPa (320 psi)) was 20%, the “mean incidence of decay” value (P. digitatum isolate M6R [11]; tank treatment 35 seconds) was 19% and the mean decay (P. digitatum isolate M6R [12]; HPSW at 2150 kPa (320 psi)) was 17%. For the same compound, the “mean incidence of decay” value (P. digitatum isolate M6R [12]; tank treatment 35 seconds) was 22%.
